What was measured:
[1] = target: RAC-alpha serine/threonine-protein kinase (Homo sapiens) (UniProt P31749); assay: Binding activity for protein kinase B (Akt) PH domain
[2] = target: RAC-alpha serine/threonine-protein kinase (Homo sapiens) (UniProt P31749); assay: Binding affinity for protein kinase B (Akt) PH domain
[3] = target: RAC-alpha serine/threonine-protein kinase (Homo sapiens) (UniProt P31749); assay: Inhibition of protein kinase B (Akt) PH domain
[4] = target: RAC-alpha serine/threonine-protein kinase (Homo sapiens) (UniProt P31749); assay: Inhibition of binding to Protein kinase B (Akt) PH domain; set-up: scale not given: the % may be the effect or the level left

RAC-alpha serine/threonine-protein kinase (Homo sapiens), sequence (P31749 whole entry, the tested form may be a part): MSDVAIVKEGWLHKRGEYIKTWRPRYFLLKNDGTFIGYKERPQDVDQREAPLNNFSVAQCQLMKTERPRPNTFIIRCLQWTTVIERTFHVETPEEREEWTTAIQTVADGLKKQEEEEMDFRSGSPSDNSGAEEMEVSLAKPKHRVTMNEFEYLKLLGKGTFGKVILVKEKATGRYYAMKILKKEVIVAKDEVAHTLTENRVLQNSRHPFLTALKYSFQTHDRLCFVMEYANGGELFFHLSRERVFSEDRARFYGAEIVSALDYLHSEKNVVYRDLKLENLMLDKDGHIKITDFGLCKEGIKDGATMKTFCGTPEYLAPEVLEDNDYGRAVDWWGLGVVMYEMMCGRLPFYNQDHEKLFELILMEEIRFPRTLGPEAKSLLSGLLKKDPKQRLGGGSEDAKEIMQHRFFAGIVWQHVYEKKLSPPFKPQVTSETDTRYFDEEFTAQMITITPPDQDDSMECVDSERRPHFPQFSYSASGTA

For `CCCCCCCCCCCCCCCCCCCC(=O)OC(COC(=O)CCCCCCCCCCCCCCCCC)COP(=O)(O)OC1C(O)CCC(OP(=O)(O)O)C1O` (configuration not stated), which Activity [1] is on record?
Its Activity is 13%.

What does the source list for `CCCCCCCCCCCCCCCCCCCC(=O)OC(COC(=O)CCCCCCCCCCCCCCCCC)COP(=O)(O)OC1C(O)CC(OP(=O)(O)O)C(OP(=O)(O)O)C1O` (configuration not stated)?
Activity [1]: 100%; Ratio [2]: 0.57

With `CCCCCCCCCCCCCCCCCCOC[C@H](COC(=O)O[C@@H]1[C@H](O)[C@@H](CO)[C@@H](O)[C@H](O)[C@@H]1O)OC` (stereo in doubt; 1) as the compound, how does the Ratio [3] read?
The Ratio was 5.

With `CCCCCCCCCCCCCCCCCCCC(=O)OC(COC(=O)CCCCCCCCCCCCCCCCC)COP(=O)(O)OC1C(O)C(OP(=O)(O)O)C(OP(=O)(O)O)C(OP(=O)(O)O)C1O` (configuration not stated) as the compound, how does the Activity [4] read?
Its Activity is -35%.

What about the Ratio [2] of the same compound?
The Ratio was 0.4.

`CCCCCCCCCCCCCCCCCCOC[C@H](COC(=O)O[C@@H]1[C@H](O)[C@@H](CO)[C@@H](O)[C@H](O)[C@@H]1O)OC` (stereo in doubt; 2) was tested. Which Ratio [3] did it give?
Its Ratio is 32.

Source: ChEMBL document CHEMBL1134371, “Molecular modeling studies of the Akt PH domain and its interaction with phosphoinositides” (J Med Chem, 2001)
